Tested on: BJeLR
Experiment: Modulatory profiling: Alamar Blue viability, lethal compound cotreated with death modulator (EC50, AUC); on AUC, modulator BJ.3MA: reference of the scale not given here; on AUC, modulator BJ.ALLN: reference of the scale not given here; on AUC, modulator BJ.Boc D: reference of the scale not given here; on AUC, modulator BJ.CHX: reference of the scale not given here; on AUC, modulator BJ.Co2+: reference of the scale not given here; on AUC, modulator BJ.DPQ: reference of the scale not given here; on AUC, modulator BJ.Gd3+: reference of the scale not given here; on AUC, modulator BJ.LNAME: reference of the scale not given here; on AUC, modulator BJ.NAD+: reference of the scale not given here; on AUC, modulator BJ.NMMA: reference of the scale not given here; on AUC, modulator BJ.Nec-1: reference of the scale not given here; on AUC, modulator BJ.Pepstatin: reference of the scale not given here; on AUC, modulator BJ.TLCK: reference of the scale not given here
Assay type: cell-based, human
Set-up: AUC, modulator BJ.Gd3+ / AUC, modulator BJ.LNAME / AUC, modulator BJ.Lmin / AUC, modulator BJ.3MA / AUC, modulator BJ.ALLN / AUC, modulator BJ.Boc D / AUC, modulator BJ.CHX / AUC, modulator BJ.Co2+ / AUC, modulator BJ.Nec-1 / AUC, modulator BJ.Pepstatin / AUC, modulator BJ.TLCK / AUC, modulator BJ.atoc / AUC, modulator BJ.trolox / AUC, modulator BJ.zVAD: unit not given beside the values
Details: BJeLR cells, modulatory profile value (AUC)

CC1CC2=C(CC1CNCCCN(C)C)C(C)(C)CCC2 (stereo not drawn) [CIL26]
AUC, modulator BJ.3MA (lethal compound cotreated with modulator 3MA): 0.05124
AUC, modulator BJ.ALLN (lethal compound cotreated with modulator ALLN): −0.0584
AUC, modulator BJ.Boc D (lethal compound cotreated with modulator Boc D): −0.05574
AUC, modulator BJ.CHX (lethal compound cotreated with modulator CHX): −0.001733
AUC, modulator BJ.Co2+ (lethal compound cotreated with modulator Co2+): 0.04871
AUC, modulator BJ.DPQ (lethal compound cotreated with modulator DPQ): 0.01829
AUC, modulator BJ.Gd3+ (lethal compound cotreated with modulator Gd3+): 0.004541
AUC, modulator BJ.LNAME (lethal compound cotreated with modulator LNAME): −0.03322
AUC, modulator BJ.Lmin/NAD+ (lethal compound cotreated with modulator Lmin/NAD+): 0.09111
AUC, modulator BJ.Lmin (lethal compound cotreated with modulator Lmin): −0.0139
AUC, modulator BJ.NAD+ (lethal compound cotreated with modulator NAD+): 0.005678
AUC, modulator BJ.NMMA (lethal compound cotreated with modulator NMMA): 0.006781
AUC, modulator BJ.Nec-1 (lethal compound cotreated with modulator Nec-1): −0.03974
AUC, modulator BJ.Pepstatin (lethal compound cotreated with modulator Pepstatin): 0.02268
AUC, modulator BJ.TLCK (lethal compound cotreated with modulator TLCK): −0.06133
AUC, modulator BJ.atoc (lethal compound cotreated with modulator atoc): 0.05008
AUC, modulator BJ.trolox (lethal compound cotreated with modulator trolox): 0.03147
AUC, modulator BJ.zVAD (lethal compound cotreated with modulator zVAD): −0.003259
